Source: publication PMC11984905, “Chiral Switch of Gadopiclenol: New Standards in MRI Probes” (Advanced Science, 2025)

Columns and labels:
Type in all cases: physicochemical
[1] = Stability and protonation constants of Ca(II)-complexes (pH-potentiometry); settings: 0.15 M NaCl, 25 °C
Procedure: (§1) The protonation constants of ligands, the stability and protonation constants of Ca(II)‐ and Zn(II)‐complexes formed with rac‐L1, ent‐L1, rac‐L2, and ent‐L2 ligands were determined by pH‐potentiometric titration. The metal‐to‐ligand concentration ratio was 1:1 (the concentration of the ligand was generally 0.002 M). The protonation constants of the Cu(II)‐ and Gd(III)‐complexes were determined using pH‐potentiometry by titrating the pre‐prepared complexes from pH 2.0 to 12.0 with 0.2 M NaOH. The stability constants of the Gd(III)‐complexes with rac‐L1 and ent‐L1 ligands were determined by the “out‐of‐cell” technique because of their slow formation reaction. The pH range of the complexation equilibria and the time needed to reach the equilibria were determined by relaxometry. Eight–eight Gd(III) – rac‐L1 and Gd(III) – ent‐L1 samples were prepared, with pH values in the range of 1.7–3.0 at equilibrium ([Gd^3+] = [L] = 0.002 M). The samples were kept at 25 °C for 6 weeks to reach equilibrium. For the calculation of the stability constants of the [Gd(rac‐L1)]^3− and [Gd(ent‐L1)]^3− complexes, besides the protonation constants of ligands and the Gd(III) complexes, the stability constants of the di‐protonated [^*Gd(H2 rac‐L1)]^− and [^*Gd(H2 […])]^− out‐of‐cage complexes (considered as intermediates) was also used as fixed values, which were calculated from the pH‐potentiometric titration curve of the Gd(III) – rac‐L1 and Gd(III) – ent‐L1 system obtained in the pH range of 1.7–7.0.
(§2) For the pH measurements and titrations, the Metrohm 888 Titrando titration workstation Metrohm‐6.0234.110 combined electrode was used. Equilibrium measurements were carried out at a constant ionic strength (0.15 M NaCl) in 6 mL samples at 25 °C. The solutions were stirred, and N2 was bubbled through them. The titrations were made in the pH range 1.7–12.0. KH‐Phthalate (pH 4.005) and borax (pH 9.177) buffers were used to calibrate the pH meter. For the calculation of [H^+] from the measured pH values, the method proposed by Irving et al. was used as follows.^[ [46] ^] A 0.01M HCl solution was titrated with standardized NaOH solution at 0.15 M NaCl ionic strength. The differences (A) between the measured (pHread) and calculated pH (‐log[H^+]) values were used to obtain the equilibrium H^+ concentration from the pH values measured in the titration experiments (A = 0.02). For the equilibrium calculations, the stoichiometric water ionic product (pK w) was also needed in order to calculate [OH^−] values under basic conditions. The VNaOH – pHread data pairs of the HCl – NaOH titration obtained in the pH range 10.5–12.0 were used to calculate the pK w value (pK w = 13.83).
(§3) The stability and protonation constants of Ca(II)-, Zn(II)-, Cu(II)- and Gd(III)-complexes of rac-L1, ent-L1, rac-L2 and ent-L2, defined by Equations (S2) and (S3), were investigated by pH-potentiometry, spectrophotometry and ^1H NMR relaxometry at 25 °C in 0.15 M NaCl solution.
(§4) where i=0, 1, 2,…5. The KML and KMHiL values characterizing the formation of Ca(II)-, Zn(II)-, Cu(II)- and Gd(III)-complexes with rac-L1, ent-L1, rac-L2 and ent-L2 ligands have been calculated from the pH-potentiometric titration data obtained at 1:1 metal to ligand concentration ratios. In calculating the equilibrium constants, the best fitting of the mL NaOH – pH data has been obtained by assuming the formation of ML, MHL, MH2L, MH3L, MH4L, MH5L and MLH-1 species. The formation of the deprotonated [GdLH-1]^- complexes with rac-L2 and ent-L2 ligands takes place at pH>9.0, as indicated by the base consumption in the titration curves. This deprotonation of the Gd(III)-complexes occurs on the inner-sphere water molecule.

[2] = Protonation constants of the ligands (pH-potentiometry); settings: 0.15 M NaCl, 25 °C; for ΣlogKi^H: total basicity
Procedure: as §1, §2
The protonation constants of ligands, defined by Equation (S1), were determined by pH-potentiometry.
where i=1, 2…7. Standard deviations (3σ) are shown in parentheses. In Table S16, the logKi^H values of rac-L1 and rac-L2 can be regarded as the weighted average of the given protonation constant characterizing the basicity of the related protonation site in the different stereoisomers.

[3] = Stability and protonation constants of Zn(II)-complexes (pH-potentiometry); settings: 0.15 M NaCl, 25 °C
Procedure: as §1, §2, §3, §4

[4] = Stability, protonation and conditional stability constants (pGd) of Gd(III)-complexes (out-of-cell pH-potentiometry, 1H NMR relaxometry, competition with AAZTA); settings: for logK^c GdL: conditional stability constant at pH 7.4; for logKGdLH-1: deprotonation of inner-sphere water; for pGd: pGd = -log[Gd^3+]free, [Gd^3+]tot = 1 µM, [L]tot = 10 µM; for pGd / logK^cGdL and pGd higher than that of the parent [Gd(PCTA)] / conditional stability higher than that of the racemic counterparts: pH 7.4; for *logKGd(H2L): diprotonated out-of-cage intermediate; for stability constant of Gd(III)-complex higher than that of the racemic complex: vs [Gd(rac-L1)]3- and [Gd(rac-L2)]; for conditional stability higher than that of the racemic counterparts: logK^c GdL and pGd
Procedure: as §1, §2
The stability constant of Gd(III)‐complexes with rac‐L2 and ent‐L2 ligands were determined by the measurement of the proton relaxation rates (r 1) studying the competition reaction of rac‐L2 and ent‐L2 ligands with AAZTA for Gd(III) ion at pH = 4.0 in 0.15 M NaCl solution. In these experiments, the concentration of Gd^3+, rac‐L2, and ent‐L2 ligands was 2.0 mM, while that of the AAZTA was varied between 1.0 and 6.0 mM (5 × 1.5 mL samples). The pH was adjusted to pH 4.0 by stepwise addition of concentrated NaOH or HCl solutions. The samples were kept at 70 °C for a month and then at 25°C for two months in order to attain the equilibrium (the time needed to reach the equilibria was determined by ^1H‐NMR relaxometry). ^1H‐NMR relaxometric measurement of Gd(III) – rac‐L2 – AAZTA and Gd(III) – ent‐L2 – AAZTA systems were performed with a Bruker Avance III 400 (9.4 T) equipped with BB inverse z gradient probe (5 mm). […]

| SMILES | logK CaL [1] | logKCaHL [1] | logK1^H [2] | logK2^H [2] | logK3^H [2] | logK4^H [2] | ΣlogKi^H [2] | logK ZnL [3] | logKZnHL [3] | logK GdL ([4]; 0.15 M NaCl, 25 °C) | logK^c GdL ([4]; 0.15 M NaCl) | logKGdLH-1 ([4]; 0.15 M NaCl, 25 °C) | pGd ([4]; 0.15 M NaCl) | logK^cGdL and pGd higher than that of the parent [Gd(PCTA)] [4] | logKCaH2L [1] | logKCaH3L [1] | logKCaH4L [1] | logK5^H [2] | logK6^H [2] | logK7^H [2] | other results |
| --- | --- | --- | --- | --- | --- | --- | --- | --- | --- | --- | --- | --- | --- | --- | --- | --- | --- | --- | --- | --- | --- |
| O=C(O)CCC(C(=O)O)N1CCN(C(CCC(=O)O)C(=O)O)Cc2cccc(n2)CN(C(CCC(=O)O)C(=O)O)CC1 (racemic) [rac‐L1, 2,2’,2’’-[3,6,9,15-tetraazabicyclo[9.3.1]pentadeca-1(15),11,13-triene-3,6,9-triyl]tripentanedioic acid] | 10.10 (1) | 5.72 (1) | 10.58 (1) | 6.99 (1) | 5.50 (1) | 4.82 (1) | 38.11 | 19.54(2) | 5.24 (4) | 18.65(5) | 15.34 | – | 16.33 | – | 5.34 (2) | 4.83 (4) | 4.45 (2) | 4.23 (1) | 3.65 (1) | 2.34 (2) | logKZnH2L [3]: 5.01 (2); logKZnH3L [3]: 3.91 (3); logKZnH4L [3]: 3.88 (3); logKGdH2L ([4]; 0.15 M NaCl, 25 °C): 4.43 (3); logKGdH3L ([4]; 0.15 M NaCl, 25 °C): 4.35 (3); logKGdH4L ([4]; 0.15 M NaCl, 25 °C): 2.25 (3); logKGdHL ([4]; 0.15 M NaCl, 25 °C): 5.32 (2); *logKGd(H2L) ([4]; 0.15 M NaCl, 25 °C): 3.58 (2) |
| O=C(O)CCC(C(=O)O)N1CCN(C(CCC(=O)O)C(=O)O)Cc2cccc(n2)CN(C(CCC(=O)O)C(=O)O)CC1 (stereo not drawn) [ent‐L1] | 11.03 (1) | 5.59 (2) | 10.62 (1) | 6.82 (1) | 5.50 (2) | 4.89 (2) | 38.20 | 20.77 (2) | 5.26 (2) | 20.17 (9) | 16.85 | – | 17.80 | 0.6 – 1.2 logK unit | 5.01 (2) | 4.74 (2) | 4.24 (3) | 4.19 (2) | 3.88 (2) | 2.30 (2) | logKZnH2L [3]: 4.76 (2); logKZnH3L [3]: 4.18 (2); logKZnH4L [3]: 3.29 (2); logKGdH2L ([4]; 0.15 M NaCl, 25 °C): 4.52 (1); logKGdH3L ([4]; 0.15 M NaCl, 25 °C): 4.15 (2); logKGdHL ([4]; 0.15 M NaCl, 25 °C): 5.28 (1); *logKGd(H2L) ([4]; 0.15 M NaCl, 25 °C): 4.00 (3); stability constant of Gd(III)-complex higher than that of the racemic complex [4]: 1.5 logK unit |
| O=C([O-])CCC(C(=O)[O-])N1CCN(C(CCC(=O)[O-])C(=O)[O-])Cc2cccc(n2)CN(C(CCC(=O)[O-])C(=O)[O-])CC1.[Gd+3] (racemic) [[Gd(ent‐L1)]^3−] | – | – | – | – | – | – | – | – | – | – | – | – | – | – | – | – | – | – | – | – | conditional stability higher than that of the racemic counterparts [4]: 0.6 – 1.5 logK unit |
| O=C(CCC(C(=O)[O-])N1CCN(C(CCC(=O)NCC(O)CO)C(=O)[O-])Cc2cccc(n2)CN(C(CCC(=O)NCC(O)CO)C(=O)[O-])CC1)NCC(O)CO.[Gd+3] (stereo not drawn) [[Gd(ent‐L2)]] | – | – | – | – | – | – | – | – | – | – | – | – | – | – | – | – | – | – | – | – | conditional stability higher than that of the racemic counterparts [4]: 0.6 – 1.5 logK unit |

Now from value to compound, other results behind:

| logK CaL [1] | logKCaHL [1] | logK1^H [2] | logK2^H [2] | logK3^H [2] | logK4^H [2] | ΣlogKi^H [2] | logK ZnL [3] | logKZnHL [3] | logK GdL ([4]; 0.15 M NaCl, 25 °C) | logK^c GdL ([4]; 0.15 M NaCl) | logKGdLH-1 ([4]; 0.15 M NaCl, 25 °C) | pGd ([4]; 0.15 M NaCl) | logK^cGdL and pGd higher than that of the parent [Gd(PCTA)] [4] | logKCaH2L [1] | logKCaH3L [1] | logKCaH4L [1] | logK5^H [2] | logK6^H [2] | logK7^H [2] | SMILES | other results |
| --- | --- | --- | --- | --- | --- | --- | --- | --- | --- | --- | --- | --- | --- | --- | --- | --- | --- | --- | --- | --- | --- |
| 7.84 (2) | 4.86 (9) | 9.58 (1) | 5.96 (2) | 4.30 (3) | 2.86 (3) | 22.70 | 18.66 (3) | 3.77 (3) | 18.96 (7) | 16.76 | 11.15 (4) | 17.70 | 0.6 – 1.2 logK unit | – | – | – | – | – | – | O=C(CCC(C(=O)O)N1CCN(C(CCC(=O)NCC(O)CO)C(=O)O)Cc2cccc(n2)CN(C(CCC(=O)NCC(O)CO)C(=O)O)CC1)NCC(O)CO (racemic) [rac‐L2] | – |
| 10.26 (1) | 4.16 (2) | 10.43(1) | 5.95 (1) | 4.08 (1) | 2.05 (2) | 22.51 | 20.13 (3) | 3.27 (3) | 20.36 (3) | 17.31 | 11.66 (1) | 18.27 | 0.6 – 1.2 logK unit | – | – | – | – | – | – | O=C(CCC(C(=O)O)N1CCN(C(CCC(=O)NCC(O)CO)C(=O)O)Cc2cccc(n2)CN(C(CCC(=O)NCC(O)CO)C(=O)O)CC1)NCC(O)CO (stereo not drawn) [ent‐L2] | stability constant of Gd(III)-complex higher than that of the racemic complex [4]: 1.5 logK unit |
